Results: the NIST ThermoML archive (doi:10.1021/acs.jced.5b00152)

Settings: Liquid; for viscosity: Capillary tube (Ostwald / Ubbelohde) method; for mass density: Vibrating tube method

CCO [ethanol]
Settings	mass density [kg/m3]	viscosity [mPa·s]
298.15 K, 1022 kPa	785.87	1.086
298.15 K, 3922 kPa	788.69	1.112
298.15 K, 8793 kPa	792.53	1.148
298.15 K, 12491 kPa	795.7	1.175
298.15 K, 17711 kPa	799.91	1.213
298.15 K, 21982 kPa	802.87	1.244
298.15 K, 24097 kPa	804.5	1.26
298.15 K, 26940 kPa	806.36	1.28
298.15 K, 29139 kPa	807.89	1.296
323.15 K, 3237 kPa	766.361	0.711
323.15 K, 9248 kPa	772.358	0.7435
323.15 K, 12839 kPa	775.758	0.7616
323.15 K, 18790 kPa	780.78	0.7928
323.15 K, 23256 kPa	784.532	0.8153
323.15 K, 25042 kPa	786.147	0.8236
323.15 K, 27936 kPa	788.458	0.8367
323.16 K, 626 kPa	763.659	0.6978
323.16 K, 15104 kPa	777.664	0.7732
333.27 K, 16623 kPa	770.196	0.6592
333.28 K, 909 kPa	754.25	0.5872
333.28 K, 1891 kPa	756.361	0.5916
333.28 K, 5093 kPa	758.805	0.6065
333.28 K, 9067 kPa	762.841	0.6251
333.28 K, 12887 kPa	766.568	0.6421
333.28 K, 22108 kPa	775.145	0.684
333.28 K, 25690 kPa	777.944	0.6985
333.28 K, 29272 kPa	780.933	0.7133

CCCCCCCO [heptan-1-ol]
Settings	mass density, 298.15 K [kg/m3]	mass density, 323.15 K [kg/m3]	viscosity, 298.15 K [mPa·s]	viscosity, 323.15 K [mPa·s]
2002 kPa	819.81	–	5.986	–
2006 kPa	–	802.09	–	2.779
3999 kPa	821.2	–	6.11	–
4003 kPa	–	803.5	–	2.832
6000 kPa	–	804.98	–	2.887
6006 kPa	822.3	–	6.233	–
7993 kPa	–	806.39	–	2.942
8000 kPa	823.7	–	6.359	–
10000 kPa	–	807.79	–	3
10002 kPa	824.8	–	6.487	–
12997 kPa	826.41	–	6.683	–
13006 kPa	–	809.85	–	3.085
15999 kPa	828.31	–	6.883	–
16007 kPa	–	811.88	–	3.173
18995 kPa	831.3	–	7.086	–
19004 kPa	–	813.79	–	3.263
22001 kPa	833.2	–	7.297	–
22008 kPa	–	815.68	–	3.354
25000 kPa	835.1	–	7.511	–
25007 kPa	–	817.57	–	3.446

CCCCCCC [heptane]
Settings	mass density [kg/m3]	viscosity [mPa·s]
293.25 K, 2103 kPa	685.58	0.4229
293.25 K, 3666 kPa	687.27	0.4317
293.25 K, 6195 kPa	689.52	0.4449
293.25 K, 10385 kPa	693.22	0.4681
293.25 K, 14421 kPa	696.48	0.4907
293.25 K, 17447 kPa	698.88	0.5062
293.25 K, 20472 kPa	701.01	0.5237
293.25 K, 23543 kPa	703.3	0.5407
293.25 K, 26611 kPa	705.5	0.5567
313.07 K, 11204 kPa	678.28	0.3782
313.07 K, 17225 kPa	683.61	0.4049
313.07 K, 20247 kPa	686.13	0.4185
313.07 K, 29805 kPa	693.98	0.4596
313.08 K, 2050 kPa	669.15	0.3388
313.08 K, 4083 kPa	671.15	0.3472
313.08 K, 6733 kPa	673.77	0.359
313.08 K, 14195 kPa	681.03	0.3912
313.08 K, 23266 kPa	688.54	0.4314
313.08 K, 26286 kPa	691.26	0.4449
332.77 K, 4091 kPa	654.57	0.2886
332.78 K, 2084 kPa	652.25	0.2805
332.78 K, 7031 kPa	658.26	0.2994
332.78 K, 11151 kPa	662.67	0.3143
332.78 K, 14177 kPa	665.56	0.3261
332.78 K, 17172 kPa	668.79	0.3367
332.78 K, 20193 kPa	671.47	0.3472
332.78 K, 23214 kPa	674.57	0.3581
332.78 K, 26231 kPa	677.28	0.3689
352.39 K, 2184 kPa	635.33	0.2346
352.39 K, 4102 kPa	637.96	0.2413
352.39 K, 11159 kPa	646.85	0.2635
352.39 K, 14169 kPa	650.4	0.2732
352.39 K, 17199 kPa	653.84	0.283
352.39 K, 29758 kPa	666.6	0.3207
352.4 K, 7146 kPa	641.83	0.2514
352.4 K, 20204 kPa	657.05	0.2922
352.4 K, 23212 kPa	660.04	0.3015
352.4 K, 26228 kPa	663.06	0.3106

CCCCCC [hexane]
Settings	mass density [kg/m3]	viscosity [mPa·s]
293.22 K, 1999 kPa	661.4	0.3196
293.22 K, 3994 kPa	663.53	0.3287
293.22 K, 5999 kPa	665.43	0.339
293.22 K, 8007 kPa	667.57	0.3483
293.22 K, 22004 kPa	680.38	0.4135
293.22 K, 28004 kPa	685.01	0.4427
293.23 K, 10003 kPa	669.41	0.3576
293.23 K, 13000 kPa	672.26	0.3713
293.23 K, 16006 kPa	675.2	0.3851
293.23 K, 19000 kPa	677.83	0.399
293.23 K, 25002 kPa	682.87	0.428
293.23 K, 30001 kPa	686.72	0.4521
313.1 K, 2005 kPa	643.6	0.2614
313.1 K, 3997 kPa	645.97	0.2702
313.1 K, 5999 kPa	648.24	0.2774
313.1 K, 8000 kPa	650.44	0.2853
313.1 K, 9999 kPa	652.57	0.2934
313.1 K, 12997 kPa	655.73	0.305
313.1 K, 15999 kPa	659	0.3165
313.1 K, 18003 kPa	661.04	0.3243
313.1 K, 21999 kPa	664.77	0.3399
313.1 K, 24998 kPa	667.58	0.3504
313.1 K, 28001 kPa	670.32	0.3631
313.1 K, 30004 kPa	672.03	0.37
333 K, 2004 kPa	624.85	0.2192
333 K, 4002 kPa	627.59	0.226
333 K, 6003 kPa	630.29	0.2328
333 K, 8005 kPa	632.82	0.2396
333 K, 10008 kPa	635.78	0.2467
333 K, 12998 kPa	639.36	0.2565
333 K, 16002 kPa	642.74	0.2667
333 K, 19000 kPa	646.04	0.2766
333 K, 21993 kPa	649.32	0.2863
333 K, 25001 kPa	652.41	0.296
333 K, 28000 kPa	655.31	0.3058
333 K, 30005 kPa	657.29	0.3128
353.14 K, 4001 kPa	608.43	0.1911
353.14 K, 8003 kPa	614.97	0.203
353.14 K, 15997 kPa	625.92	0.2264
353.14 K, 21998 kPa	633.46	0.2438
353.15 K, 2003 kPa	605.15	0.1848
353.15 K, 5997 kPa	611.57	0.197
353.15 K, 10009 kPa	618	0.2091
353.15 K, 13000 kPa	622.08	0.2179
353.15 K, 19000 kPa	629.87	0.2352

CCCCCO [pentan-1-ol]
Settings	mass density, 298.15 K [kg/m3]	mass density, 323.15 K [kg/m3]	viscosity, 298.15 K [mPa·s]	viscosity, 323.15 K [mPa·s]
1999 kPa	–	794.19	–	1.835
2003 kPa	811.93	–	3.593	–
3999 kPa	813.3	–	3.661	–
4001 kPa	–	795.77	–	1.868
6001 kPa	–	797.32	–	1.903
6003 kPa	814.64	–	3.731	–
8000 kPa	–	798.83	–	1.937
8005 kPa	815.96	–	3.799	–
9998 kPa	–	800.31	–	1.972
10001 kPa	817.26	–	3.867	–
12999 kPa	–	802.47	–	2.025
13000 kPa	819.15	–	3.972	–
16001 kPa	–	804.56	–	2.078
16004 kPa	821	–	4.08	–
19002 kPa	–	806.59	–	2.134
19006 kPa	822.8	–	4.19	–
22000 kPa	824.56	–	4.301	–
22001 kPa	–	808.56	–	2.19
24998 kPa	826.27	–	4.41	–
25002 kPa	–	810.48	–	2.245

O [water]
Settings	mass density [kg/m3]	viscosity [mPa·s]
293.36 K, 2061 kPa	999.51	0.9917
293.36 K, 4085 kPa	999.98	0.9931
293.37 K, 7118 kPa	1001.28	0.9928
293.37 K, 26278 kPa	1010.35	0.9863
293.38 K, 11158 kPa	1003.59	0.9898
293.38 K, 17210 kPa	1006.18	0.9897
293.38 K, 20234 kPa	1006.98	0.988
293.38 K, 23255 kPa	1008.25	0.9883
313.08 K, 4076 kPa	994.07	0.6535
313.08 K, 7109 kPa	995.47	0.6538
313.08 K, 11150 kPa	996.66	0.6546
313.08 K, 14177 kPa	997.99	0.655
313.08 K, 17203 kPa	999.9	0.6552
313.08 K, 20228 kPa	1000.99	0.6557
313.08 K, 23250 kPa	1001.91	0.6559
313.08 K, 26271 kPa	1003.18	0.6562
313.08 K, 29788 kPa	1004.77	0.6586
313.09 K, 2053 kPa	992.98	0.6538
332.85 K, 14173 kPa	989.5	0.4707
332.85 K, 17195 kPa	990.83	0.4712
332.85 K, 20214 kPa	991.48	0.4725
332.85 K, 26252 kPa	994.06	0.4751
332.86 K, 4081 kPa	984.88	0.4685
332.86 K, 7113 kPa	985.99	0.4685
332.86 K, 11150 kPa	988.22	0.47
352.57 K, 4073 kPa	973.51	0.3574
352.58 K, 2044 kPa	972.64	0.3565
352.58 K, 7107 kPa	975.4	0.3582
352.59 K, 11142 kPa	977	0.3592
352.59 K, 14161 kPa	977.85	0.36
352.6 K, 17181 kPa	979.13	0.361
352.6 K, 20194 kPa	980.96	0.3617
352.6 K, 23203 kPa	982.36	0.3627
352.6 K, 26211 kPa	983.69	0.3638
352.6 K, 29715 kPa	984.92	0.3648
